We go through 17 compounds from patent US20020028851A1, “Guanylhydrazones and their use to treat inflammatory conditions” (priority 1994, published 2002).

Like-named read-outs stand apart in the source and are kept apart here.

The test system of data set [1] is RAW 264.7 cells. Description: Whole cell inhibition assay for arginine uptake. The class given is cell-based, murine. As to conditions: γIFN+LPS, 8 hours. The protocol: In the embodiment described in the working example herein, a test population of cells was cultured for about 3 hours so that the cells became firmly adherent. Various concentrations of the potential inhibitors were then added to parallel cultures. One hour later the macrophage stimulators, e.g. including, but not limited to LPS and γIFN, were added. Eighteen hours later the cells were washed in a warm balanced salt solution supplemented with glucose. Carrier-free radiolabelled arginine was added; after 5 minutes, active uptake of arginine was stopped by washing the cell three times with buffer, chilled to 0° C., containing 10 mM unlabeled arginine to displace any externally bound label. The contents of the washed cells are solubilized in 100 μl of formic acid and counted by standard techniques.
RAW 264.7 cells are plated in standard 96-well microculture plates at a concentration of 10^5/well and allowed to adhere for from 2 hours to overnight. The medium is then replaced with medium containing the compound to be tested. One hour later, the medium is supplemented so as to contain 25 U/ml γIFN and 0.1 μg/ml LPS and the cultures incubated a further. The cells are then rinsed twice in HEPES- buffered Krebs salt solution with 0.1% glucose. Carrier-free tetra-^3H-arginine is added to each well (2.5 μCi/well with specific activity of […]) and the active uptake of arginine is allowed to continue for a 5 minute period after which the cells are rapidly cooled to 0° C. by lavage with iced saline containing 10 mM unlabeled arginine to displace any externally bound label. The contents of the washed cells are solubilized in 100 Al of formic acid and counted by standard techniques. In subsequent experiments to determine the acitivity of the inhibitors, incubations were performed for 8 hours.
(§1) This section describes experiments that measure the concentration of Compound No. 14 needed to inhibit arginine uptake and NO output. The techniques employed were described in section 7.1 supra.

Data set [2] deals with RAW 264.7 cells. Description: Whole cell inhibition assay for urea output. The conditions noted are these: for urea % suppression of induced production: γIFN+LPS, 18 hours; for IC50: interpolated, γIFN+LPS-activated RAW 264.7, 18 hours, read-out: I.C.50 (in parenthesis), inhibition of urea production. The class given is cell-based, murine. The method, then: (§2) RAW 264.7 cells are plated in microculture wells at 1×10^6/ml in RPMI 1640 with 10% FBS and otherwise standard culture conditions and allowed to adhere for 5 hours. They are then activated with 25 U/ml γIFN and 0.1 μg/ml LPS in the presence of test inhibitors. The urea concentration present in the supernatant media, after 18 hours of culture, is determined by a colorimetric blood urea nitrogen diacetylmonoxime assay performed on an aliquot of the culture supernatant (Sigma Chem. Co., St. Louis, Mo.) and inhibition is expressed as the percentage urea compared to that of a parallel control culture treated identically except that the concentration of added inhibitor is zero.
(§3) Various concentrations of the test compounds are included in the media of the stimulated RAW 264.7 cells in culture. The concentration of urea and/or nitrite after 18 hours of activated culture is determined and compared to the uninhibited control value obtained from at least one parallel culture. The fractional reduction is calculated for each concentration of inhibitor and the IC50 (concentration giving 50% reduction) is interpolated. Compounds were dissolved in media with mild heat (60° C.). Those with limited solubility were dissolved in base. The concentration of stock solutions of those compounds which were not completely soluble was determined by OD280.

The subject of data set [3] is RAW 264.7 cells. Kind of data set: Whole cell inhibition assay for NO (nitrite) output. The conditions noted are these: γIFN+LPS, 18 hours. The class given is cell-based, murine. The method, then:
as §2
The production of nitrite is determined by assay of the same tissue culture supernatant by means of a calorimetric assay. Briefly, 4 parts of test solution containing 1% (w/v) sulfanilamide, 0.1% naphthylethylenediamine di-HCl (Griess Reagent), 2.5% H3PO4 and one part media are mixed, incubated for 10 minutes and the absorbance at 560 nm determined. The nitrite concentrations are interpolated from reference curves prepared using NaNO2.
as §3, §1

For the compound `CC(=NNC(=N)N)c1ccc(NC(=O)Nc2cc(C(C)=NNC(=N)N)cc(C(C)=NNC(=N)N)c2)cc1.Cl.Cl.Cl` [Compound 9, N-(4-acetylphenyl)-N′-(3,5-diacetylphenyl)urea tris(amidinohydrazone) trihydrochloride], the “arginine transport % suppression of induced peak” value (shortened to “arginine transport % suppression”) was 14% with RAW 264.7 cells [1] (dose 1 μM), 32% in the data set on RAW 264.7 cells [1] (dose 10 μM) and 68% in the data set on RAW 264.7 cells [1] (dose 25 μM). The entries for the “urea % suppression of induced production” value in the data set with RAW 264.7 cells [2] (dose 1 μM), in the data set on RAW 264.7 cells [2] (dose 10 μM) and with RAW 264.7 cells [2] (dose 25 μM) were 0%, 60% and 100%, respectively. Moreover, the IC50 with RAW 264.7 cells [2] came out at 10 µM. For the same compound, the “no2/no3 % suppression of induced production” value (from here on “no2/no3 % suppression”) in the data set on RAW 264.7 cells [3] (dose 1 μM) is given as 0%; in the data set with RAW 264.7 cells [3] (dose 10 μM), 53%; in the data set on RAW 264.7 cells [3] (dose 25 μM), 71%.
For the compound `CC(=NNC(=N)N)c1ccc(O)c(O)c1.Cl` [Compound 7, 2-[(3,4-dihydroxyphenyl)-ethylidyne]hydrazinecarboximidamide hydrochloride], the “urea % suppression of induced production” value was determined as 23% in the data set with RAW 264.7 cells [2] (dose 10 μM); 35% in the data set with RAW 264.7 cells [2] (dose 100 μM); 40% with RAW 264.7 cells [2] (dose 1 mM); 55% in the data set with RAW 264.7 cells [2] (dose 2 mM); 100% with RAW 264.7 cells [2] (dose 10 mM). The IC50 in the data set on RAW 264.7 cells [2] was found to be 2000 µM.
On to `CC(=NNC(=N)N)c1cc(NC(=O)c2ccccc2)cc(C(C)=NNC(=N)N)c1.Cl.Cl`, for which the melting point lay within 268 to 272 °C.
On to `CC(=NNC(=N)N)c1ccc(NC(=O)Nc2ccc(C(C)=NNC(=N)N)cc2)cc1` [Compound 8, 4,4′-diacetyldiphenylurea bis(guanylhydrazone)], for which the “urea % suppression of induced production” value in the data set with RAW 264.7 cells [2] (dose 50 μM) is recorded as 76%; in the data set on RAW 264.7 cells [2] (dose 500 μM), 100%. In addition, the IC50 in the data set on RAW 264.7 cells [2] stood at 50 µM.
On to `CC(=NNC(=N)N)c1ccc(-n2ccnc2)cc1.Cl` [Compound 6, 2-([(1H-imidazol-1-yl)-1,4-phenylene]ethylidyne)hydrazinecarboximidamide hydrochloride], for which the “urea % suppression of induced production” value with RAW 264.7 cells [2] (dose 50 μM) turned out to be 0%; in the data set on RAW 264.7 cells [2] (dose 100 μM), 40%; with RAW 264.7 cells [2] (dose 1 mM), 100%. Besides, the IC50 with RAW 264.7 cells [2] was found to be 250 µM.
As to `CC(=O)c1cc(NC(=O)NCCN(CCNC(=NNC(=N)N)Nc2cc(C(C)=NNC(=N)N)cc(C(C)=NNC(=N)N)c2)CCNC(=NNC(=N)N)Nc2cc(C(C)=NNC(=N)N)cc(C(C)=NNC(=N)N)c2)cc(C(C)=O)c1.Cl.Cl.Cl.Cl.Cl.Cl.Cl` (hydrate or solvate), the melting point was 245 to 246 °C (dec.).
The compound `CC(=NNC(=N)N)c1cc(NC(=N)NC(=N)N)cc(C(C)=NNC(=N)N)c1.Cl.Cl.Cl` yielded a melting point of 294 to 297 °C.
As to `CC(=NNC(=N)N)c1cc(C(C)=NNC(=N)N)cc(C(C)=NNC(=N)N)c1` [Compound 1, 1,3,5-triacetylbenzene tris(guanylhydrazone)], the “arginine transport % suppression” value in the data set on RAW 264.7 cells [1] (dose 1 μM) was 0%; in the data set with RAW 264.7 cells [1] (dose 10 μM), 20%; with RAW 264.7 cells [1] (dose 25 μM), 40%. Besides, in the data set with RAW 264.7 cells [2] (Mus musculus, RAW264.7), the IC50 worked out at 10 µM. Besides, the “urea % suppression of induced production” value with RAW 264.7 cells [2] (dose 10 μM) is given as 60%; in the data set with RAW 264.7 cells [2] (dose 25 μM) it was 100%. In addition, the “no2/no3 % suppression” value in the data set with RAW 264.7 cells [3] (dose 10 μM) is 58%; in the data set on RAW 264.7 cells [3] (dose 25 μM) it was 72%.
In turn, `COc1ccc(C=NNC(=N)N)cc1OCCCCCOc1cc(C=NNC(=N)N)ccc1OC.Cl.Cl` came in with a melting point of 195 to 198 °C.
For the compound `CC(=NNC(=N)N)c1cc(NC(=O)CCCC(=O)Nc2cc(C(C)=NNC(=N)N)cc(C(C)=NNC(=N)N)c2)cc(C(C)=NNC(=N)N)c1.Cl.Cl.Cl.Cl` [Compound 13, N,N′-bis(3,5-diacetyl-phenyl)pentanediamide tetrakis(amidinohydrazone) tetrahydrochloride], the “arginine transport % suppression” value amounted to 19% in the data set with RAW 264.7 cells [1] (dose 25 μM), 7% in the data set on RAW 264.7 cells [1] (dose 50 μM) and 93% in the data set with RAW 264.7 cells [1] (dose 500 μM). Also, the “urea % suppression of induced production” value is reported as 45% in the data set on RAW 264.7 cells [2] (dose 10 μM); 77% in the data set on RAW 264.7 cells [2] (dose 25 μM, compound as precipitate); 100% in the data set with RAW 264.7 cells [2] (dose 25 μM, compound dissolved as solution); 87% with RAW 264.7 cells [2] (dose 50 μM); 100% in the data set on RAW 264.7 cells [2] (dose 500 μM). In the data set on RAW 264.7 cells [2], the IC50 came out at 10 µM. For the same compound, the “no2/no3 % suppression” value is recorded as 43% with RAW 264.7 cells [3] (dose 25 μM) and 52% with RAW 264.7 cells [3] (dose 500 μM).
Regarding `CC(=O)c1ccc(NC(=O)NCCN(CCNC(=NNC(=N)N)Nc2ccc(C(C)=O)cc2)CCNC(=NNC(=N)N)Nc2ccc(C(C)=NNC(=N)N)cc2)cc1.Cl.Cl.Cl` (hydrate or solvate), the melting point is 224 to 225 °C (dec.).
On to `CC(=O)c1cc(NC(=O)NCCCN(CCCNC(=NNC(=N)N)Nc2cc(C(C)=NNC(=N)N)cc(C(C)=NNC(=N)N)c2)CCCNC(=NNC(=N)N)Nc2cc(C(C)=NNC(=N)N)cc(C(C)=NNC(=N)N)c2)cc(C(C)=O)c1.Cl.Cl.Cl.Cl.Cl.Cl.Cl` (hydrate or solvate), for which the melting point is 250 to 251 °C (dec.).
As to `CC(=O)c1ccc(NC(=O)NCCCN(CCCNC(=NNC(=N)N)Nc2ccc(C(C)=O)cc2)CCCNC(=NNC(=N)N)Nc2ccc(C(C)=NNC(=N)N)cc2)cc1.Cl.Cl.Cl` (hydrate or solvate), the melting point was 209 to 210 °C (dec.).
As for `Cl.Cl.N=C(N)NN=C(CCC(=NNC(=N)N)c1ccccc1)c1ccccc1` [Compound 20, 2,2′-(1,4-diphenyl-1,4-butanediylidene)bishydrazinecarboximidamide dihydrochloride], the melting point was 285 to 286 °C. In addition, the IC50 in the data set with RAW 264.7 cells [2] (Mus musculus, RAW264.7) came to 300 µM. Also, in the data set on RAW 264.7 cells [2] (dose 10 μM), the “urea % suppression of induced production” value stood at 16%. Also, in the data set on RAW 264.7 cells [2] (dose 50 μM), the “urea % suppression of induced production” value came out at 19%. In addition, the “urea % suppression of induced production” value in the data set on RAW 264.7 cells [2] (dose 200 μM) was 38%. In addition, the “urea % suppression of induced production” value with RAW 264.7 cells [2] (dose 400 μM) stood at 100%. Moreover, the “no2/no3 % suppression” value with RAW 264.7 cells [3] (dose 10 μM) came out at 0%. In the data set on RAW 264.7 cells [3] (dose 50 μM), the “no2/no3 % suppression” value is recorded as 0%. Further, the “no2/no3 % suppression” value in the data set with RAW 264.7 cells [3] (dose 200 μM) is reported as 15%. For the same compound, the “no2/no3 % suppression” value with RAW 264.7 cells [3] (dose 400 μM) stood at 84%.
Compound `CC(=O)c1cc(NC(=NNC(=N)N)NCC(C)CCCNC(=NNC(=N)N)Nc2cc(C(C)=NNC(=N)N)cc(C(C)=NNC(=N)N)c2)cc(C(C)=O)c1.Cl.Cl.Cl.Cl` (centres unmarked) (hydrate or solvate) yielded a melting point of 258 to 259 °C.
Same read-out and setting: with `CC(=O)c1cccc(NC(CCCC(=NNC(=N)N)Nc2cccc(C(C)=O)c2)=NNC(=N)N)c1.Cl.Cl` [Compound 12, N,N′-bis(3-acetylphenyl)pentanediamide bis(amidinohydrazone) dihydrochloride] the figure was 187 to 191 °C; with `CC(=O)c1cccc(NC(=NNC(=N)N)c2cc(C(=NNC(=N)N)Nc3cccc(C(C)=O)c3)cc(C(=NNC(=N)N)Nc3cccc(C(C)=O)c3)c2)c1.Cl.Cl.Cl` (hydrate or solvate), 270 to 275 °C (dec.).
